Source: patent US20190040025A1, “INDOLEAMINE 2,3-DIOXYGENASE INHIBITOR, PREPARATION METHOD THEREFOR, AND APPLICATION” (Jiangsu Hansoh Pharmaceutical Group Co., Ltd., priority 2016, published 2019)

What was measured:
[1] = target: T1, Human indoleamine 2,3-dioxygenase (IDO) (Homo sapiens, UniProt P14902); experiment: Enzymatic test for IDO activity inhibition; assay type: biochemical; settings: 40 nM IDO enzyme, 0.2 mM L-tryptophan, 60 minutes at 30° C.
T1 construct: purchased BPS Bioscience Inc
Procedure: Human indoleamine 2,3-dioxygenase (IDO) was purchased from BPS Bioscience Inc. The enzymatic reaction of idoleamine 2,3-dioxygenase (IDO) was performed in a 96-well plate with a reaction volume of 20 μL. The reaction conditions were: 40 nM IDO enzyme, 0.2 mM L-tryptophan, 50 mM KPB (pH 6.5) buffer, 20 mM sodium L-L-ascorbate, 10 μM methylene blue, 0.2 mg/mL catalase, different concentrations of compounds containing <1% dimethyl sulfoxide. After reacting for 60 minutes at 30° C., 5 μL of 30% (w/v) trichloroacetic acid (in 50 mM KPB buffer) weres added to each well. The plate was incubated for 30 minutes at 50° C. to hydrolyze N-formyl-kynurenine to kynurenine. 25 μL of 2% (w/v) p-(dimethylamino)benzaldehyde (p-DMBA)/glacial acetic acid solution were added to each well. The absorbance at 490 nm was read on a BioTek Synergy H1 microplate reader […].
The stock solution of the test compound was prepared to 10 mM with dimethyl sulfoxide, diluted with dimethyl sulfoxide to the highest concentration of the test during the experiment, then diluted in 1:3 gradient, and generally diluted to 8 to 10 concentration points. Duplicate wells were set for each concentration point, and one reference compound was included in each experiment. The original data of the absorbance at 490 nm read on a microplate reader were analyzed. The inhibition of IDO enzyme activity was calculated at different concentrations of the test compound. The half-inhibitory concentration IC50 value of the compound was obtained by non-linear fitting analysis of inhibition percentage data by GraphPad Prism software.

[2] = target: T2, indoleamine 2,3-dioxygenase (IDO) in HeLa cells (Homo sapiens, UniProt P14902); experiment: Cell model test for IDO activity inhibition (interferon γ induced HeLa cells); assay type: cell-based; settings: interferon γ 50 ng/mL, 24 hours, read-out: Cytological Test IC50
T2 construct: Interferon γ induced the expression of IDO in HeLa cells; host or cells: HeLa cells induced with interferon γ
Procedure: Interferon γ induced the expression of IDO in HeLa cells. This model was used to test the inhibitory activity of compounds on indoleamine 2,3-dioxygenase (IDO). The culture medium of HeLa cells (ATCC) was phenol red-free RPMI-1640 containing 100 μM L-tryptophan. The stock solution of the test compound was prepared to 10 mM with dimethyl sulfoxide, and diluted with dimethyl sulfoxide to the highest concentration of the test during the experiment, then diluted in three-fold gradient, and generally diluted to 8 to 10 concentration points. Duplicate wells were set for each concentration point. The final concentration of DMSO was 0.5%, and internal reference compound was included in each experiment.
The procedure of the experiment was as follows: 20,000 HeLa cells (ATCC) per well were added on a 96-well culture plate and incubated overnight. After 24 hours, interferon γ (final concentration of 50 ng/mL) and different concentrations of the test compound and the internal reference compound were added to the incubated cells. After 24 hours, 140 μL of the supernatant/well was transferred to a new 96-well plate, and 10 μL of 6.1 N trichloroacetic acid was added to each well. The plate was incubated for 30 minutes at 50° C. to hydrolyze N-formyl-kynurenine to kynurenine. The reaction mixture was centrifuged at 2500 rpm for 10 minutes to remove the precipitate, and the supernatant (100 μL) was transferred to another new 96-well plate. 100 μL of 2% (W/V) p-(dimethylamino)benzaldehyde (p-DMBA)/glacial acetic acid solution was added to each well. The absorbance at 490 nm was read on a BioTek Synergy H1 microplate reader […].
The original data of the absorbance at 490 nm read on a microplate reader were analyzed. The inhibition of IDO enzyme activity was calculated at different concentrations of the test compound. The half-inhibitory concentration IC50 value of the compound was obtained by non-linear fitting analysis of inhibition percentage data by GraphPad Prism software.

T2 sequence (P14902 whole entry): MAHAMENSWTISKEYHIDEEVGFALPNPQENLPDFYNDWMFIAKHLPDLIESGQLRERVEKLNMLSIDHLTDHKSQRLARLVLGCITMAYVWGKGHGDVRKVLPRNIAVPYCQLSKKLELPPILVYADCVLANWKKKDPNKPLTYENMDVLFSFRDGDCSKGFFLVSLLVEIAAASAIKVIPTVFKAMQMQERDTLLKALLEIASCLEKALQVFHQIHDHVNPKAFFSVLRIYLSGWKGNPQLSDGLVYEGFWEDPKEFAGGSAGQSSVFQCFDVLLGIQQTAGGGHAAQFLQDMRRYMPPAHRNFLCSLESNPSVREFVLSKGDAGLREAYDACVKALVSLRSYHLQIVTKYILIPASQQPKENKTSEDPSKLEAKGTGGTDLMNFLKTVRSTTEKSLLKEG
T1 sequence (P14902 whole entry): as above

CS(=O)(CCNc1nonc1/C(=N/O)Nc1ccc(F)c(Br)c1)=NS(=O)(=O)C1CC1 (centres unmarked) [Example 15, (Z)—N-(3-bromo-4-fluorophenyl)-4-((2-(N-(cyclopropylsulfonyl)-S-methylsulfonimidoyl)ethyl)amino)-N′-hydroxy-1,2,5-oxadiazole-3-carboximidamide]
IC50 [1]: 27 nM
IC50 [2]: 10 nM
